Laboratory results as given in PubChem BioAssay (NCI).
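Values below derive from 48-hour exposures of cells grown in 96-well plates, with endpoints linearly interpolated between the two concentrations bracketing the appropriate inhibition level. TGI is the concentration that stops growth completely.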 *1 amine or outer side, *2 acyl side, *3 side chain or, on linkers, in order; H or OH if unused. Where a SMILES comes first, the peptide text is derived from it. [ ]: non-standard residue; d: D form. The star is where a group is joined. ξ: configuration not given here. X27 = O=C([C@H]1CCC[C@H]1N[*:1])[*:2]; ξW = NC(Cc1c[nH]c2ccccc12)C(=O)O; ξF = NC(Cc1ccccc1)C(=O)O; Boc = CC(C)(C)OC(=O)*; ξK = NCCCCC(N)C(=O)O; ξT = CC(O)C(N)C(=O)O; tBu = CC(C)(C)*

What was measured:
Test in all cases: growth of human tumour cells (NCI), 48 h
DU-145 prostate = tested on: DU-145 prostate
IGROV1 ovarian = tested on: IGROV1 ovarian
NCI-H226 lung = tested on: NCI-H226 lung
OVCAR-5 ovarian = tested on: OVCAR-5 ovarian
RPMI-8226 leukemia = tested on: RPMI-8226 leukemia
SF-295 CNS = tested on: SF-295 CNS
SK-MEL-28 melanoma = tested on: SK-MEL-28 melanoma
T-47D breast = tested on: T-47D breast
UO-31 renal = tested on: UO-31 renal
SK-OV-3 ovarian = tested on: SK-OV-3 ovarian

| SMILES | TGI (DU-145 prostate) [µM] | TGI (IGROV1 ovarian) [µM] | TGI (NCI-H226 lung) [µM] | TGI (OVCAR-5 ovarian) [µM] | TGI (RPMI-8226 leukemia) [µM] | TGI (SF-295 CNS) [µM] | TGI (SK-MEL-28 melanoma) [µM] | TGI (T-47D breast) [µM] | TGI (UO-31 renal) [µM] | TGI (SK-OV-3 ovarian) [µM] |
| --- | --- | --- | --- | --- | --- | --- | --- | --- | --- | --- |
| O=C1NC(=S)N/C1=C\c1cc2c(=O)c3ccccc3sc2s1 | > 100 | > 100 | > 100 | > 100 | > 100 | > 100 | > 100 | > 100 | > 100 | – |
| O=c1ccn(CC2(CO)CCCC2)c(=O)[nH]1 | > 100 | > 100 | > 100 | > 100 | > 100 | > 100 | > 100 | > 100 | > 100 | > 100 |
| COC(=O)c1c(C)cccc1C1CN=NC12Cc1ccccc1C2=O (stereo unspecified) | > 100 | > 100 | > 100 | > 100 | > 100 | > 100 | > 100 | > 100 | > 100 | > 100 |
| C=CCNC(=S)N=Nc1c(O)n(CN2CCOCC2)c2ccc([N+](=O)[O-])cc12 | > 100 | > 100 | > 100 | > 100 | > 100 | > 100 | > 100 | 95.1 | > 100 | > 100 |
| O=[N+]([O-])c1ccc2nc(Cl)n[n+]([O-])c2c1 | 31.7 | 25.6 | 42.2 | 31.3 | 9.1 | 47.9 | 34 | 47.3 | 30.7 | 31.4 |
| c1cnn(C23C4C5C6C4C2C6C53)c1 (stereo unspecified) | > 100 | > 100 | > 100 | > 100 | > 100 | > 100 | > 100 | > 100 | – | > 100 |
| CN(C)CCNc1nc2ccccc2c2c1CCCC2 | > 100 | 38.3 | 55.7 | > 100 | 46.7 | 31.1 | 39.6 | 40.4 | 27.5 | 42.9 |
| CC(OC(C)(C)C)C1NC(=O)C(CCCCNC(=O)OC(C)(C)C)NC(=O)C(Cc2c[nH]c3ccccc23)NC(=O)C(Cc2ccccc2)NC(=O)[C@H]2CCC[C@H]2NC(=O)C(Cc2ccccc2)NC1=O (stereo partly specified) (cyclo([X27][ξF][ξW][ξK](Boc)[ξT](tBu)[ξF])) | > 100 | > 100 | > 100 | 59.8 | > 100 | 73.7 | > 100 | > 100 | > 100 | > 100 |
| Cc1sc2[nH]c(=O)oc(=O)c2c1C | > 100 | > 100 | > 100 | > 100 | > 100 | > 100 | > 100 | > 100 | > 83.3 | > 100 |
| CCCCc1ccc(Nc2nc(Cl)c3ncn(COCCOC(C)=O)c3n2)cc1 | 29.7 | 31.6 | 50.7 | 35.5 | 55.4 | 33.9 | – | 65.9 | 29.7 | 76.9 |
| COc1ccc(NC(=S)N/N=C\c2ccc(NC(C)=O)cc2)cc1 | > 100 | > 100 | – | > 100 | > 100 | > 100 | > 100 | > 100 | > 100 | > 100 |
